The values below come from BindingDB's records for doi:10.1074/jbc.M110.178376 (University of Pavia, 2011).

Counter-ions that a name gives are not always drawn.

Sequence of Beta-2-microglobulin (P61769 whole entry): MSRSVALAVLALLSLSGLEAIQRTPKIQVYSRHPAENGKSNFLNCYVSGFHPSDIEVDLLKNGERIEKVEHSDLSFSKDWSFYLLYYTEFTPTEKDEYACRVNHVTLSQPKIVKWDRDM

The experiment has as its target Beta-2-microglobulin (Homo sapiens, UniProt P61769). Description: Fluorescence Assay. The following applies: pH 7.4; 37 °C. An excerpt:
Inhibition of wild type beta-m fibrillogenesis tetracycline congeners and was follow by thioflavin fluorescence assay.
With `CN(C)[C@H]1C(=O)C(C(N)=O)C(=O)[C@@]2(O)C(=O)C3C(=O)c4c(O)cccc4[C@@](C)(O)C3C(O)C12` (stereo partly drawn) [4-epi-oxytetracycline], the IC50 (usually the concentration needed to halve the response being measured) worked out at 49 µM.

For the compound `C[C@H]1c2cccc(O)c2C(=O)C2C(=O)[C@]3(O)C(=O)C(C(N)=O)C(=O)[C@@H](N(C)C)[C@@H]3[C@@H](O)[C@@H]21` (some centres not stated), it took 47 µM to reach half-maximal inhibition (IC50). As to `C=C1c2cccc(O)c2C(=O)C2C(=O)[C@]3(O)C(=O)C(C(N)=O)C(=O)[C@@H](N(C)C)[C@@H]3[C@@H](O)[C@H]12` (stereo partly drawn) [(4S,4aR,5S,5aS,12aS)-4-(dimethylamino)-5,10,12a-trihydroxy-1,3,11,12-tetraketo-6-methylene-4a,5,5a,11a-tetrahydro-4H-tetracene-2-carboxamide;hydrochloride], it took 69 µM to reach half-maximal inhibition (IC50). Regarding `C=C1c2c(Cl)ccc(O)c2C(=O)C2C(=O)[C@]3(O)C(=O)C(C(N)=O)C(=O)[C@@H](N(C)C)[C@@H]3[C@@H](O)[C@H]12` (some centres not stated) [Meclocycline], the IC50 turned out to be 98 µM. The compound `CN(C)[C@@H]1C(=O)C(C(N)=O)C(=O)[C@@]2(O)C(=O)C3C(=O)c4c(O)cccc4[C@@](C)(O)[C@H]3[C@H](O)[C@@H]12` (stereo partly drawn) [(2E,4S,4aR,5S,5aR,6S,12aS)-2-[azanyl(oxidanyl)methylidene]-4-(dimethylamino)-6-methyl-5,6,10,11,12a-pentakis(oxidanyl)-4,4a,5,5a-tetrahydrotetracene-1,3,12-trione] had a concentration for half-maximal inhibition (IC50) of 63 µM.

For `CN(C)[C@@H]1C(=O)C(C(=O)NCN2CCCC2)C(=O)[C@@]2(O)C(=O)C3C(=O)c4c(O)cccc4[C@@](C)(O)[C@H]3C[C@@H]12` (some centres not stated) [Rolitetracycline], the IC50 was found to be 136 µM. `Cc1c2c(c(O)c3c(O)ccc(Cl)c13)C(=O)[C@]1(O)C(=O)C(C(N)=O)C(=O)[C@@H](N(C)C)[C@@H]1C2` (some centres not stated) [Anhydrochlortetracycline] had a 50% inhibitory concentration (IC50) of 136 µM.
